According to patent US12390435B2, “Electrophiles and electrophile pro-drugs as RAD51 inhibitors” (University of Pittsburgh—Of the Commonwealth System of …, priority 2018, dated 2025):

Key:
[1] = system: MDA-MB-231 xenograft tumor; assay: MDA-MB-231 xenograft tumor growth, 7.5 mg/kg/day oral gavage; type: in vivo, mice
Protocol: MDA-MB-231 cells were injected into the fourth inguinal mammary fat pad of 6-week-old female athymic nude mice.

[2] = system: RAD51 foci in MDA-MB-231 cells; assay: RAD51 foci and γH2AX immunofluorescence after 5 Gy IR; type: cell-based
Protocol: To analyze RAD51 foci formation, 10,000 cells were plated to CultureWell 16-well chambered cover glass (MIDSCI) coated with poly-L-lysine (Sigma) and incubated overnight in 5% FBS media. […] Cells were fixed with 10% formalin for 20 min at 4° C. and immunostained with RAD51 (Santa Cruz) or γH2AX (EMD Biosciences) antibodies. Z-stack images were acquired using a Nikon AIR confocal microscope with 60× oil objective and acquisition performed using NIS elements software. Quantification of z-stacks and foci were completed using ImageJ software.
Data represent the mean±SEM from 3 independent experiments unless otherwise noted. A p value<0.05 was considered statistically significant. Non-linear curves were generated in GraphPad Prism 7.0 (GraphPad Software, La Jolla, CA, USA) for statistical analysis. EC50 values and standard error were calculated from three independent experiments utilizing a non-linear dose response variable slope model. Significance was tested by one-way ANOVA for multiple groups with Tukey posttest or by t-test when groups were less than three. RAD51 foci number was analyzed with ImageJ. Nuclear boundaries were individually identified in more than 50 cells per treatment group in three independent experiments.

breast cancer cell = assay: Clonogenic assay after 2 Gy IR; type: cell-based; conditions: increasing concentrations
RAD51-ABL complex = biological target: T1, RAD51-ABL complex (Homo sapiens, UniProt Q06609); assay: FLAG-RAD51/ABL immunoprecipitation in 293T cells; type: cell-based; conditions: 0 to 5 μM, 1 h
T1 construct: expressed in transfected cells; host or cells: HEK 293T
Protocol: Cell lysates and immunoprecipitation were prepared. For immunoprecipitation analysis, one million HEK 293T cells were transiently transfected with Fugene 6 (Promega) and 2 μg pQCXIP (EV) or FLAG-RAD51 pQCXIP plasmids and precipitated with Anti-FLAG M2 Affinity Gel (Sigma).
Cys319 is located in the RAD51 C-terminus within one of the two ABL-SH3 binding domains (amino acids 283-286 and 318-321). […] ABL regulates RAD51 activity via sequential phosphorylation of RAD51 Tyr54 and then Tyr315.

[3] = system: MDA-MB-231 and MDA-MB-468 cells; assay: Boyden chamber cell migration; type: cell-based; conditions: 5 μM
Protocol: MDA-MB-231 and MDA-MB-468 cells were subjected to cell migration analysis in Boyden chambers. The bottom of a 12-well membrane filter (BD Biosciences) was coated with 10 μg/mL fibronectin for 12 hr before each experiment. […] Cells were trypsinized and washed with migration media (DMEM containing 0.1% fatty acid-free BSA) to remove serum. Cells at a density of 10^5/well were then placed in the upper chamber with migration media containing the same pretreatment conditions. The cells were allowed to migrate towards the 5% FBS chemoattractant for 5 hr. Non-migrated cells from the top surface were removed with cotton swabs. Migrated cells were fixed with 4% paraformaldehyde (Electron Microscopy Sciences), then stained with 0.5% crystal violet (Sigma-Aldrich) for 15 min. Migrated cell density on the filters was observed by microscopy. The crystal violet on migrated cells was de-stained with 10% acetic acid, and the absorbance in individual filters was determined at […] nm. Images are representative of three individual experiments, and statistical comparison among treatments was determined by one-way analysis of variance followed by Tukey post-test.

MDA-MB-468 cells = assay: Matrigel cell invasion assay; type: cell-based; conditions: NO2-OA/NO2-SA 5 μM, JSH-23 10 μM, TNFα 20 ng/mL, 24 hr
Protocol: Cells were then suspended in migration media and placed in the top well of invasion chambers (EMD Millipore). Chemoattractant (5% FBS) was placed in the lower chamber for 24 hr at 37° C. to attract invasive cells. Cells were then harvested and invasion rates were determined according to manufacturer's protocol. Three individual experiments were done, and statistical comparison among treatments was determined by one-way analysis of variance followed by Tukey post-test.

[4] = system: RelA in MDA-MB-231 and MDA-MB-468 cells; assay: RelA protein level and polyubiquitination; type: cell-based
Protocol: Lysates were clarified by centrifugation at 14,000×g for 10 min. Protein lysates (1 mg) were incubated with anti-RelA antibody and Protein G/A conjugated agarose beads (EMD Millipore, Bedford, MA) at 4° C., overnight. Immunoprecipitation fraction were obtained by centrifugation at 14,000×g for 1 min at RT and washed with lysis buffer three times. The immunoprecipitated RelA was resolved by 8% SDSPAGE gel, and transferred to nitrocellulose membrane (Bio-Rad) for immunoblotting probed with an anti-ubiquitin antibody (Santa Cruz Biotechnology). The blot was then stripped and probed with an anti-RelA antibody to assess amounts of RelA protein pull-down.
Western blotting was performed. 20-60 μg of total lysates per lane were loaded on 7%, 10%, or 12% SDS-PAGE and transferred onto nitrocellulose or polyvinylidene difluoride membranes (Bio-Rad). The membranes were probed with primary antibodies against caspase-3, multi-drug resistance protein-1 (MRP1), poly [ADP ribose] polymerase-1 (PARP-1), ubiquitin, RelA; cyclin D1, p21, caspase-9, MRP4, IKKβ, pIKKβ, IκBα, or pIκBα (Cell Signaling); caspase-8 (R&D Systems). Samples were normalized to β-actin (Sigma-Aldrich) or GAPDH (Trevigen).

[5] = intravenous and oral formulations; cited from earlier work

T1 sequence (Q06609 whole entry, one chain of several): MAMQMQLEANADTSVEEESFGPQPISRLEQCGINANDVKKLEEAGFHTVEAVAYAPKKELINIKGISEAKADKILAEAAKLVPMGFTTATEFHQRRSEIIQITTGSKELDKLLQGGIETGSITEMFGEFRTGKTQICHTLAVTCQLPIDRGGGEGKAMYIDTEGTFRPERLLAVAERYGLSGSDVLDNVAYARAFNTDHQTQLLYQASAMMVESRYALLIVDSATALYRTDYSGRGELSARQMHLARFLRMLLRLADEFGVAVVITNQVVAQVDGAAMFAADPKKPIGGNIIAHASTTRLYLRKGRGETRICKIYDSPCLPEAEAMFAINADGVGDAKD

Q: With `CCCCCCCCC(=CCCCCCCCC(=O)O)[N+](=O)[O-]` [NO2-OA, 10-nitro-octadec-9-enoic acid] as the molecule, how does the xenograft tumor growth ([1]; 7.5 mg/kg/day oral gavage, 27 days post-treatment, versus vehicle and NO2-SA) read?
A: Its xenograft tumor growth is “significantly reduced tumor growth”.

Q: What about the “body weight during treatment” value ([1]; 7.5 mg/kg/day, 4 weeks) of the same molecule?
A: Its value is “no weight loss”.

Q: And the overt toxicity ([1]; 7.5 mg/kg/day, 4 weeks)?
A: The overt toxicity was “no overt toxic effects”.

Q: And the “tumor NO2-OA levels” value ([1]; oral administration)?
A: Its value is “increased murine tumor NO2-OA levels”.

Q: What about the RAD51 foci formation ([2]; 5 μM, 6 h) of the same molecule?
A: Its RAD51 foci formation is “inhibited RAD51 foci formation”.

Q: And the “nuclear γH2AX localization” value ([2]; versus vehicle)?
A: The value was “significantly increased nuclear γH2AX localization”.

Q: What about the “cell death in clonogenic assay” value (breast cancer cell) of the same molecule?
A: Its value is “enhanced breast cancer cell death”.

Q: And the “ABL bound to RAD51” value (RAD51-ABL complex)?
A: The value was “decreased the amount of ABL bound to RAD51”.

Q: What about the “RAD51 Tyr315 phosphorylation” value (RAD51-ABL complex) of the same molecule?
A: Its value is “inhibited”.

Q: And the “basal, non-stimulated migration” value [3]?
A: Its value is “modestly inhibited”.

Q: What about the TNFα-induced cell migration ([3]; TNFα 20 ng/mL) of the same molecule?
A: Its TNFα-induced cell migration is “significantly inhibited”.

Q: What about the TNFα-induced invasion (MDA-MB-468 cells) of the same molecule?
A: Its TNFα-induced invasion is “significantly inhibited”.

Q: And the “polyubiquitination of RelA” value ([4]; 5 μM, 5 hr)?
A: Its value is “promoted polyubiquitination of RelA”.

Q: And the RelA protein abundance ([4]; 5 μM, 24 hr)?
A: The RelA protein abundance was “decreased the abundance of RelA”.

Q: What about the “RelA mRNA levels” value ([4]; all three cell lines (MDA-MB-231, MDA-MB-468, MCF-10A)) of the same molecule?
A: The value was “not altered”.

Q: What about the clinical safety [5] of the same molecule?
A: The clinical safety was “safe”.
